The values that follow come from patent US8426462B2, “Ferrocene derivatives with anticancer activity” (Centre National de la Recherche Scientifique (CNRS), priority 2008, dated 2013).

Experiment [1] deals with MDA-MB-231 cells (non-hormone-dependent breast cancer cells). The settings on record: read-out: Antiproliferative effect (IC50). How it is done: (§1) The antiproliferative effects of compounds of the invention were tested on MDA-MB-231 cells, which are non-hormone-dependent breast cancer cells, on PC-3 cells, which are non-hormone-dependent prostate cancer cells and on MCF-7 cells, which are hormone-dependent breast cancer cells.
(§2) The experimental method used for this test is described in Hillard E. A. et al. Chem. Med. Chem. 2006, 1, 551-559.

The test system of experiment [2] is PC-3 cells (non-hormone-dependent prostate cancer cells). The settings on record: read-out: Antiproliferative effect (IC50). How it is done: as §1, §2
For experiment [3], the system named is MCF-7 cells (hormone-dependent breast cancer cells containing ERα). In words: Proliferative/antiproliferative effect on MCF-7 cells. Type of experiment: cell-based. The note with it: for proliferative effect based on the control: MCF-7, without phenol red, 10^−8M; for IC50: MCF-7, approximate, estrogen effect plus cytotoxic activity, read-out: IC50 on MCF-7 line (converted). The text has this: The purely cytotoxic effect appears at higher concentrations where the resultant of the two components (estrogen effect plus cytotoxic activity) is therefore evidenced. It is thus difficult to achieve very accurate IC50 values for the MCF-7 line.

For “1,1′-[1-[1,1-bis(4-hydroxyphenyl)methylidene]-2-methyltrimethylene]ferrocene [Compound 11]”, the IC50 (usually the point on the concentration scale where inhibition reaches its midpoint) in experiment [1] came to 630 nM.

Regarding “1,1′-[1-[1,1-bis(4-hydroxyphenyl)methylidene]trimethylene]ferrocene [Compound 4]”, the figures for the IC50 in experiment [1], in experiment [2] and in experiment [3] were 80 nM, 940 nM and roughly 4000 nM, respectively. Further, the “proliferative effect based on the control” value in experiment [3] was 162%. “1,1′-[1-[(4-hydroxyphenyl)(phenyl)-methylidene]trimethylene]ferrocene [Compound 12]”: the half-maximal inhibitory concentration (IC50) in experiment [1] worked out at 470 nM. As for “1,1′-[2-[1,1-bis(4-hydroxyphenyl)methylidene]trimethylene]ferrocene [Compound 5]”, the IC50 was 960 nM in experiment [1], 1080 nM in experiment [2] and roughly 1000 nM in experiment [3]. On to “1,2-[1-[1,1-bis(4-hydroxyphenyl)methylidene]tetramethylene]-ferrocene [Compound 9]”, for which the IC50 in experiment [1] came out at 500 nM. Still for that read-out and setting: to “1,2-[1-[1,1-bis(4-hydroxyphenyl)methylidene]trimethylene]ferrocene [Compound 8]” belongs 2700 nM.

As for `C[C@]12CC[C@@H]3c4ccc(O)cc4CC[C@H]3[C@@H]1CC[C@@H]2O` [estradiol, reference compound], the “proliferative effect based on the control” value in experiment [3] is 264%. Consider “(R)-1,1′-[1-[1,1-bis(4-hydroxyphenyl)methylidene]-3-methyltrimethylene]ferrocene [Compound 7]”, for which the IC50 in experiment [1] came to 780 nM. Same read-out and setting: in the case of “(S)-1,1′-[1-[1,1-bis(4-hydroxyphenyl)methylidene]-3-methyltrimethylene]ferrocene [Compound 6]” it was 2700 nM.
